Laboratory results from patent US9028856B2, “Synergistic pesticide compositions” (priority 2008, dated 2015).

Experiments:
[1] = system: Musca domestica, susceptible strain WHO(N); assay: Efficacy of formulations on surfaces (glazed/unglazed tiles), house flies, continuous exposure; type: in vivo; settings: strain WHO(N) susceptible, acetone solutions on glazed tiles, mean of three replicates
Description: A flat fan nozzle (type SS 8003-E) in a spray cabin was moved automatically over a defined area where the solutions were sprayed very evenly onto the surfaces. The formulation was mixed with water to give a concentration which corresponded to the desired quantity of a.i./m^2. A defined quantity of this solution was sprayed onto the area (nominal 350 liter/ha=0.77 ml per surface).
All surfaces were provided with talcum-coated glass rings (diameter 9.5 cm, height 5.5 cm) one day later.
The test insects were anesthetized with CO2, 20 individuals were placed onto the treated surfaces and the glass ring was covered with wire gauze ring.
Knock down was determined after 15 and 30′, 1, 2, 4 and 6 hours, mortality after 1 day exposure.
Each test consisted of at least one replicate and any additional replicates are noted.
Test Insects: House flies (Musca domestica) of both sexes, susceptible strain WHO(N) and resistant strain Reichswald
Evaluation: Mortality was evaluated cumulatively at different times. […]
Test Insects: Culex quinquefasciatus (adults) (3 minutes exposure time according to USDA Petri Dish Method), Musca domestica (adults), susceptible and resistant strain, Blattella germanica (males), Cimex lectularius (adults) (all: continuous exposure time)
Application: The EC formulation (diluted with water 1:9) were applied as 0.85 ml solutions onto glazed tiles (15 cm×15 cm)
Evaluation: Knock down after 15, and 30 minutes, 1, 2, 3, 4, 6 and 24 hours (mortality)
Test Insects: Culex quinquefasciatus (adults, susceptible) (3 minutes exposure time according to USDA Petri Dish Method), Musca domestica (adults, susceptible and resistant), Blattella germanica (males, susceptible) (both: continuous exposure time)
Formulations: Insecticide with or without 10% Compound A (as EC), to be diluted with water (1 part formulation+9 parts water)
Evaluation: Knock down after 3, 9 (mosquitoes only), 15, and 30 minutes, 1, 2, 3, 4 and 24 hours (mortality) […]

[2] = type: physicochemical; settings: classified from Log P
Source text: As used herein, a “partition coefficient” is defined as the ratio of concentrations of an un-ionized compound between solutions of water and octanol. To measure the partition coefficient of ionizable solutes, the pH of the aqueous phase is adjusted such that the predominant form of the compound is un-ionized. The logarithm of the ratio of the concentrations of the un-ionized solute in the solvents is referred to herein as log P or log K ow.
As noted herein, the octanol-water partition coefficient may be used to identify the cuticular penetration of a particular active ingredient. One factor in the relative speed through which any insecticide acts is the insecticide's ability to cross the insect cuticle. A determining factor for cuticle penetration is Log K ow, also known as Log P. Log K ow (Log P) is the octanol-water partition coefficient for a neutral molecule. Log P is used hereinfurther, but, as noted above, the term is synonymous with Log K ow. As previously noted, the cuticular penetration of any particular active ingredient as against a plant cuticle is not indicative of that same active ingredient's ability to penetrate an insect cuticle.
The cuticular penetration of a compound is classified as “INTERMEDIATE” when the Log P value is between about 2.0 and about 4.0.

[3] = system: Musca domestica, susceptible strain WHO(N); assay: Contact efficacy against houseflies on filter papers in glass dishes; type: in vivo; settings: % a.i. conc. in acetone on filter papers, Table 97
Description: Male Musca domestica, susceptible strain WHO(N), were used.
A solution of the active ingredient in acetone was prepared. A concentration row was made. After evaporation of the acetone (30′), the dishes were closed by a glass lid and transferred into the test room. One day later twenty flies, anaesthetized with CO2, are counted into each dish. At regular intervals, knock down was recorded (cumulatively). Each test consisted of one replicate. […]

Compound: CC1(C)[C@H](C(=O)O[C@H](C#N)c2cccc(Oc3ccccc3)c2)[C@@H]1C=C(Br)Br [0.001% DTM]
- % Mortality after ([1]; 15′): 2%
- % Mortality after ([1]; 30′): 18%
- % Mortality after ([1]; 1 h): 58%
- % Mortality after ([1]; 2 h): 80%
- % Mortality after ([1]; 3 h): 88%
- % Mortality after ([1]; 24 h): 92%

Compound: CCOP(=S)(OCC)Oc1nc(Cl)c(Cl)cc1Cl [chlorpyrifos]
- Likelihood of Direct Insect Cuticular Penetration [2]: Fast (classified as “FAST” when it has a Log P value of about >4.0)

Compound: CC1(C)C(C=C(Br)Br)C1C(=O)OC(C#N)c1cccc(Oc2ccccc2)c1 (centres unmarked) [0.0016% DTM]
- % knock down after ([3]; 15′): 0%
- % knock down after ([3]; 30′): 5%
- % knock down after ([3]; 1 h): 70%
- % knock down after ([3]; 1.5 h): 90%
- % knock down after ([3]; 2 h): 100%
- % knock down after ([3]; 3 h): 100%
- % knock down after ([3]; 4 h): 100%
- % knock down after ([3]; 6 h): 100%
- % knock down after ([3]; 1 d): 95%

Compound: CC1(C)[C@H](C(=O)O[C@H](C#N)c2cccc(Oc3ccccc3)c2)[C@@H]1C=C(Br)Br [0.0000128% DTM]
- % knock down after ([3]; 15′): 0%
- % knock down after ([3]; 30′): 0%
- % knock down after ([3]; 1 h): 0%
- % knock down after ([3]; 1.5 h): 0%
- % knock down after ([3]; 2 h): 0%
- % knock down after ([3]; 3 h): 0%
- % knock down after ([3]; 4 h): 0%
- % knock down after ([3]; 6 h): 15%
- % knock down after ([3]; 1 d): 70%

Compound: CC1(C)[C@H](C(=O)O[C@H](C#N)c2cccc(Oc3ccccc3)c2)[C@@H]1C=C(Br)Br [0.00032% DTM]
- % knock down after ([3]; 15′): 0%
- % knock down after ([3]; 30′): 0%
- % knock down after ([3]; 1 h): 5%
- % knock down after ([3]; 1.5 h): 30%
- % knock down after ([3]; 2 h): 50%
- % knock down after ([3]; 3 h): 65%
- % knock down after ([3]; 4 h): 65%
- % knock down after ([3]; 6 h): 60%
- % knock down after ([3]; 1 d): 95%

Compound: CC1(C)[C@H](C(=O)O[C@H](C#N)c2cccc(Oc3ccccc3)c2)[C@@H]1C=C(Br)Br [0.000064% DTM]
- % knock down after ([3]; 15′): 0%
- % knock down after ([3]; 30′): 0%
- % knock down after ([3]; 1 h): 0%
- % knock down after ([3]; 1.5 h): 0%
- % knock down after ([3]; 2 h): 0%
- % knock down after ([3]; 3 h): 0%
- % knock down after ([3]; 4 h): 0%
- % knock down after ([3]; 6 h): 15%
- % knock down after ([3]; 1 d): 80%

Compound: CCOP(=S)(OCC)Oc1cc(C)nc(C(C)C)n1 [diazinon]
- Likelihood of Direct Insect Cuticular Penetration [2]: Intermediate (classified as “INTERMEDIATE” when the Log P value is between about 2.0 and about 4.0)
